Laboratory results reported in patent US4933456A, “Dipyridoxyl phosphate NMRI contrast agents” (Salutar, Inc., priority 1987, dated 1990).

Legend:
[1] = Description: The compound DPDP was studied potentiometrically from pH 11.2 to 2.0. Data sets were collected on a custom-built automatic potentiometric titration apparatus composed of a METROHM 655 DOSIMAT automatic buret, a FISHER ACCUMET pH meter with a CORNING calomel combination electrode, a custom-blown water jacketed titration cell, a BRINKMAN LAUDA K-2/R constant temperature bath and a COMMODORE 64 computer. […] Data analysis was performed on an IBM-AT computer using the least squares program, BETA (Harris, W. et al, supra), and the data analysis program, HANDNBAR (Harris, W. et al, supra). The titrants were standardized by phenophthalein titration as follows: KOH was calibrated against potassium hydrogen phthalate (a primary standard), and HCl solutions were calibrated against the KOH standard. […] All solutions were made from distilled, deionized water that was further purified on a MILLI-Q cartridge system, degassed, and then kept under an atmosphere of argon which had been scrubbed for CO2 and O2. Additions of EDTA and Mn(II) solutions were performed using calibrated GILMOT pipets.
The metal complex titration was performed by adding 152.2 mg (0.2383 mmoles) to 74.6 ml of a high pH aqueous solution.

[2] = defects not observable without Mn(DPDP)

## Cc1ncc(COP(=O)(O)O)c(CN(CCN(CC(=O)[O-])Cc2c(COP(=O)(O)O)cnc(C)c2O)CC(=O)[O-])c1O.[Mn+2] [Mn(DPDP), sodium-calcium salt of a manganese chelate complex of N,N,-bis-(pyridoxal-5-phosphate)ethylenediamine-N,N'-diacetic acid or N,N'-bis(3-hydroxy-2-methyl-5-phosphonomethyl-4-pyridylmethyl)ethylenediamine-N,N'-diacetic acid]
[1]; Mn(II) chelate, potentiometric, pH 11.1 to 2.0
  log Kf (formation constant): 14.8
[1]; physiological pH, Mn stabilized at the +2 valence
  binding of Mn(II) ion to the chelating agent at physiological pH: quantitatively bound
[1]; titration data
  pH below which the complex begins to demetallate: below 4.5
[2]
  detection of blood-brain barrier defects by NMRI tomography: defects were observed by NMRI tomography
